The text below walks through data of patent publication US20210196635A1, “DRUG-CONTAINING PARTICLE” (TOWA PHARMACEUTICAL CO., LTD., priority 2018, published 2021).

This data set can be described thus: Average particle diameter (D50) of powder. The note with it: powder as used for coating. Format: physicochemical. The source says:
The term “an average particle diameter” used herein refers to a particle diameter of 50% cumulative percentage (D50) on volume-based measurement of powder particle, which can be measured on the mass with a commercially available laser diffraction type particle size distribution measuring device and sonic wave vibration type sieving analyzer.

The compound `C[C@H]1COc2c(N3CCN(C)CC3)c(F)cc3c(=O)c(C(=O)O)cn1c23.C[C@H]1COc2c(N3CCN(C)CC3)c(F)cc3c(=O)c(C(=O)O)cn1c23.O` [Compound A, levofloxacin 0.5 hydrate] showed an average particle diameter of 3.38 μm.
